Experimental data published in patent US5800838A, “Composition that inhibits or destroys at least one unicellular living organism containing fluorine F- and Lithium li+” (priority 1987, dated 1998).

How the values were obtained:
[1] = tested on: spermatozoa; test: SANDERS-CRAMER total spermicidal test according to IPPF standards; format: cell-based; details: alone
[2] = tested on: proteus mirabilis; test: "chess" test, dilution in liquid medium, Trial 2; format: cell-based
Excerpt: (§1) Substance A was gentamicine
The strain was a very resistant proteus mirabilis (wild-type hospital)

[3] = tested on: Pseudomonas aeruginosa; test: "chess" test, dilution in liquid medium, Trial 4; format: cell-based
Excerpt: as §1
The strain was pseudomonas aeruginosa (wild-type hospital resistant strain)

[4] = tested on: proteus mirabilis; test: MIC of gentamicine, inclined agar with concentration gradient; format: cell-based; details: alone; SENSIBLE strains
Experimental: (§2) The strains used were wild-type hospital strains having a resistant phenotype as regards gentamicine: pseudomonas aeruginosa, proteus mirabilis, serratia marcescens.
(§3) The phenotype of the strains was determined by diffusion in gradient on selective agar. Then, each group of strains having the same phenotype (resistant or sensible) was seeded on inclined agar having a gradient of concentration of the composition.
(§4) This methodology is explained by SZYBALSKI and BRYSON in "Selection de mutants resistant aux antibiotiques", L'antibiogramme, Vigot, p. 259-260.
(§5) The results are shown in the following table illustrating the MIC of gentamicine (aminoglycoside antibiotic).
(§6) x/y means a concentration read between x ppm and y ppm.

[5] = tested on: serratia marcescens; test: as above; format: cell-based; details: alone; SENSIBLE strains
Experimental: as §2, §3, §4, §5, §6

[6] = tested on: Pseudomonas aeruginosa; test: as above; format: cell-based; details: alone; SENSIBLE strains
Experimental: as §2, §3, §4, §5, §6

[7] = tested on: salmonella spirochete; test: "Time killing curve", optical density at 600 nm; format: cell-based; details: Fli 32 ppm
Experimental: (§7) The kinetics of the bacterial growth of serratia marcescens and salmonella spirochete has been studied with the "Time killing curve" methodology, for gentamicine (64 ppm) alone, Fli (32 ppm) and gentamicine (64 ppm) in presence of Fli (32 ppm). The bacterial growth is determined by spectrophotometric reading of the optical density for a wavelength of 600 nm.
(§8) The following table illustrates the optical density (1/100) obtained: […]

[8] = tested on: serratia marcescens; test: "Time killing curve", optical density at 600 nm; format: cell-based; details: Fli 32 ppm
Experimental: as §7, §8

[9] = tested on: pseudomonas aeruginosa and Escherichia coli; format: cell-based
Excerpt: It is known that a strain develops a resistance against an antibiotic substance with which it is left in contact, by a phenotypical mutation procedure.
This phenomena has been studied on pseudomonas aeruginosa and Escherichia coli (wild-type hospital strains) which commonly develop resistance against aminosides. The antibiotic substance choosen was thus gentamicine which is an aminoside antibiotic.
And the growth of the resistance was studied with gentamicine alone, then with gentamicine in presence of Fli.
The trial was conducted on 12 days, and the MIC of gentamicine alone and of gentamicine in presence of Fli (4 ppm) was determined each day on transportplates in liquid medium with a serie of dilution in Mueller/Hinton agar.
The MBC (Minimal Bactericide Concentration) was also determined from the solution after determination of the MIC seeded on agar adapted to the strain. The MBC is read for a percentage of survivors less than 0,20%.

[10] = tested on: Staphylococcus aureus
Experimental: Concentration series of two antibiotic substances A and B are prepared in the geometric ratio of 2 are combined and the following values are determined:
MIC B/A = minimal inhibiting concentration B in presence of A [formula]
The MIC of the bacteriostatic effect is read when the percentage of surviving strains is less or equal to 1%.
The combination of the substances A and B is synergistic as regards the bacteriostatic effect when FIC≤0,75. The combination is additive when FIC=1. The combination is insensible when 1<FIC≤2. The combination is antagonistic when FIC>2.
Substance A was tetracycline (concentration serie from 0,25 to 128 mg/l)
Substance B was Fli (concentration serie from 0,25 to 16 mg/l)
The strain was staphylococcus aureus (wild-type hospital resistant strain)

[11] = tested on: Klebsiella pneumoniae; test: "chess" test, dilution in liquid medium, Trial 3; format: cell-based
Excerpt: as §1
The strain was Klebsiella pneumoniae (wild-type hospital strain)

[12] = tested on: MAC COY cells; test: Cytotoxic activity with respect to MAC COY cells; details: LiF at 1 mg/l; benzalkonium chloride under the conditions of the trials
[13] = tested on: Pseudomonas aeruginosa; test: MIC of antibiotics by microdilution in liquid medium on plates (Example 18); format: cell-based; details: Pseudomonas aeruginosa, read-out: MIC (average MIC value)
Experimental: The unicellular living organism chosen for the trials is Pseudomonas aeruginosa (wild-type strain originating from hospital sources).
The same methodology as for Examples 11 and 12 was follows. Bacteriostatic analyses were performed with a number of antibiotics belonging to benzylpenicillins, and aminopenicillins, and first and second generation cephalosporins, namely:
The determination of the MIC was carried out by the microdilution method in liquid medium on plates. Aqueous solutions of each antibiotic are prepared in MUELLER HINION broth, to obtain dilutions in a geometric ratio of 2. The solvent is sterile double-distilled water.
The preparation of the bacterial inoculum is made with a culture of Pseudomonas aeruginosa, with agitation on a water bath at 37° C. for 4 to 6 hours, giving 10^6 bacteria/ml.
Three trials were performed per antibiotic and per bacterial inoculum. The trials were performed first with the antibiotics alone (trials a).sctn., and then with the addition of a dose of 1 mg/l of an aqueous solution of lithium fluoride (trials b).sctn. to the dilution of each one in every cup of every plate.

[14] = tested on: Klebsiella pneumonia; test: Phenotype of resistant wild-type hospital strains with activated antibiotics (Example 35); format: cell-based; details: Fli 4 ppm
Experimental: Strains Gram+ and Gram- (wild-type hospital) having a resistant phenotype vis a vis standard firstly and secondly used antibiotherapy were experimented on activated antibiotics.
250 experiments were conducted on the following strains: Streptococcus group B, C, D, F, G, Staphylococcus aureus, Staphylococcus epidermitis, Klebsiella pneumoniae, Klebsiella spirochete, Klebsiella oxytoca, Proteus mirabilis, Serratia marcescens, Escherichia coli, Citrobacter freundii, Enterobacter cloacae, Enterobacter calcoaceticus, Salmonella spirochete, Salmonella typhimurium, Pseudomonas aeruginosa, Haemophilus influenzae, Haemophilus sphrophilus, Acinetobacter calcoaeticus. […]

[15] = B (Fli) in presence of A (gentamicine)
[16] = alone, wild-type hospital resistant strain

With `[F-].[Li+]` [lithium fluoride] the MIC [1] was about 3 ppm, the “MIC, equivalent in %” value [1] was about 0.0003% and the “MIC B/A” value [2, 15] was 16 µg/mL. The “MIC alone (MIC A, MIC B)” value ([2]; alone, very resistant wild-type hospital strain) was 128 µg/mL, the “MIC B/A” value [3, 15] was 16 µg/mL and the “MIC alone (MIC A, MIC B)” value [3, 16] was 128 µg/mL. The MIC [4] was > 32 ppm or mg/l, the MIC [5] was > 32 ppm or mg/l and the MIC [6] was > 32 ppm or mg/l. The “optical density (1/100)” value ([7]; 3 h 00, gentamicine 64 ppm) was 14 1/100, the “optical density (1/100)” value ([7]; 24 h 00, gentamicine 64 ppm) was 20 1/100 and the “optical density (1/100)” value ([8]; 3 h 00, gentamicine 64 ppm) was 13 1/100. For the same molecule, the “optical density (1/100)” value ([8]; 6 h 00, gentamicine 64 ppm) was 15 1/100, the “optical density (1/100)” value ([8]; 24 h 00, gentamicine 64 ppm) was 18 1/100 and the “effect on creation of resistance” value [9] was “retards the creation of the resistance and reduces to the half the capability of each strain for developping such resistances”. For the same molecule, the “resistance developed by the strain” value ([9]; against Fli, 12 days) was “no resistance is developped”, the “MIC B/A” value ([10]; B (Fli) in presence of A (tetracycline)) was 16 µg/mL and the “MIC alone (MIC A, MIC B)” value [10, 16] was 64 µg/mL. The “MIC B/A” value [11, 15] was 32 µg/mL, the “MIC alone (MIC A, MIC B)” value ([11]; alone, wild-type hospital strain) was 128 µg/mL and the toxic activity [12] was “does not have toxic activity”.
In the case of `CCN1CCN(C(=O)N[C@@H](C(=O)N[C@@H]2C(=O)N3C(C(=O)O)=C(CSc4nnnn4C)CS[C@H]23)c2ccc(O)cc2)C(=O)C1=O` [CEFOPERAZONE, cefoperazone], the MIC ([13]; + LiF 1 mg/l, strain lic R βLac^+ OXA) was 64 µg/mL, the MIC ([13]; + LiF 1 mg/l, strain lic R βLac^+ PSE) was 32 µg/mL and the MIC ([13]; + LiF 1 mg/l, strain lic R βLac^+ TEM) was 32 µg/mL. For the same molecule, the MIC ([13]; + LiF 1 mg/l, strain lic R βLac^+ cephalosporinase) was 64 µg/mL, the MIC ([13]; + LiF 1 mg/l, strain lic S βLac^- (first column)) was 4 µg/mL and the MIC ([13]; + LiF 1 mg/l, strain lic S βLac^- (second column)) was 16 µg/mL. It also gave an MIC ([13]; alone, strain lic R βLac^+ OXA) of 64 µg/mL, an MIC ([13]; alone, strain lic R βLac^+ PSE) of 64 µg/mL and an MIC ([13]; alone, strain lic R βLac^+ TEM) of 32 µg/mL. For the same molecule, the MIC ([13]; alone, strain lic R βLac^+ cephalosporinase) was 64 µg/mL, the MIC ([13]; alone, strain lic S βLac^- (first column)) was 8 µg/mL and the MIC ([13]; alone, strain lic S βLac^- (second column)) was 16 µg/mL. The “phenotype in presence of Fli” value [14] was “the resistant phenotype was not changed”.
